{
  "source": "BindingDB's records for patent US12054475",
  "about": "(Kayothera, 2024)",
  "key": {"Retinal dehydrogenase 2 [1]": {"molecular_target": "T1, Retinal dehydrogenase 2 (UniProt Q62148)", "T1 sequence (Q62148 whole entry)": "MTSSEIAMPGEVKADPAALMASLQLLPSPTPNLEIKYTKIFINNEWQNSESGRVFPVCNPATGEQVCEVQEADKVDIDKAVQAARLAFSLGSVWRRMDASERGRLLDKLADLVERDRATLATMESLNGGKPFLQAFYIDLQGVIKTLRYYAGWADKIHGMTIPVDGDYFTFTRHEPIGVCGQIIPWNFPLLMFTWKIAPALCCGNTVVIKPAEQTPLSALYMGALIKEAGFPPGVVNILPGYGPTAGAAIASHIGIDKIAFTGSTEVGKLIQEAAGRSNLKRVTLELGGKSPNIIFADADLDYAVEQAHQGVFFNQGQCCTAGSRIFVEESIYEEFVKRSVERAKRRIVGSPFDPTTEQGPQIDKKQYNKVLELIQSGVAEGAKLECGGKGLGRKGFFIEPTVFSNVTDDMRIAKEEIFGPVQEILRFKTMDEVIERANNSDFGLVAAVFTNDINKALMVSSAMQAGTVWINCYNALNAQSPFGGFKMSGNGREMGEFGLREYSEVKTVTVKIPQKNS", "assay": "Aldh1a2 Enzyme Inhibition Assay"}, "Retinal dehydrogenase 2 [2]": {"molecular_target": "T2, Retinal dehydrogenase 2 (Homo sapiens, UniProt O94788)", "T2 sequence (O94788 whole entry)": "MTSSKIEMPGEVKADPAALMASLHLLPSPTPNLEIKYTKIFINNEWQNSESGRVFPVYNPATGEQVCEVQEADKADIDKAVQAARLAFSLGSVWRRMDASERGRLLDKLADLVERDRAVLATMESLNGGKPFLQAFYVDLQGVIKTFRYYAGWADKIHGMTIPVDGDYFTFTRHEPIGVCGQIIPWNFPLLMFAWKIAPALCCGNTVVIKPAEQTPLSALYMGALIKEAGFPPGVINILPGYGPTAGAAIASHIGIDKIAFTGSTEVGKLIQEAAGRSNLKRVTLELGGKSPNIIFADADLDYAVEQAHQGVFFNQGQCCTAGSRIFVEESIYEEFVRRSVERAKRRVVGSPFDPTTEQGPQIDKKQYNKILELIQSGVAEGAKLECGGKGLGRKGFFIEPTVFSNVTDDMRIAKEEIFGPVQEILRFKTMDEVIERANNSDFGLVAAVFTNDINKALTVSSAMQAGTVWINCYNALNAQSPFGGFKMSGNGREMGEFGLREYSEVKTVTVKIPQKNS", "assay": "Aldh1a2 Enzyme Inhibition Assay"}},
  "data": [
    {"smiles": "CCC1COCCN1C(=O)Nc1cc(C)c2c(c1)CCC(=O)N2", "note": "(racemic) [US12054475, Compound 193]", "values": [
      {"measurement": "IC50", "setting": "Retinal dehydrogenase 2 [1]", "result": "> 10", "unit": "µM"},
      {"measurement": "IC50", "setting": "Retinal dehydrogenase 2 [2]", "result": "> 10", "unit": "µM"}
    ]}
  ]
}
